# Results as given in patent publication US20130296430A1, “COMPOSITIONS AND METHODS FOR TREATING AUTISM AND AUTISM SPECTRUM DISORDER” (priority 2012, published 2013).
# Entries after “also recorded” stand apart in the source; their conditions may differ.
# Key:
# [1] = cited from earlier work
# children with autism [2] = test: 12-week placebo-controlled study of NAC: Repetitive Behavior Scale-Revised (RBS-R); assay type: in vivo, human
# Description: The Repetitive Behavior Scale-Revised (RBS-R) (Bodfish et al., The Repetitive Behavior Scale: A test manual (1998)) is an empirically derived clinical rating scale for measuring the presence and severity of a variety of forms of restricted, repetitive behavior that are characteristic of individuals with autism. The RBS-R consists of 6 subscales: stereotyped behavior, self-injurious behavior, compulsive behavior, routine behavior, sameness behavior, and restricted behavior. The scale provides an overall raw score for severity of repetitive behaviors and separate measures of severity for each subtype of repetitive behavior. High scores indicate more severe behavioral symptoms.
# (§1) A 12-week, double-blind randomized, placebo-controlled study of NAC in children with autism was conducted in the Autism & Developmental Disabilities Clinic in the Division of Child & Adolescent Psychiatry at Stanford University Medical Center. The recruitment period started in March 2009 and ended in September 2010. Subjects with and without mental retardation were included. After obtaining informed consent, subjects were screened and inclusion and exclusion criteria were assessed. No changes in eligibility criteria were applied throughout the study. This investigation was approved by the institutional review board at Stanford University School of Medicine. An investigational new drug application (IND#100905) was filed with the Food and Drug Administration, and the study was registered in National Institutes of Health at ClinicalTrials.gov (identifier number NCT00627705).
# After the screening phase, baseline measures were obtained from subjects continuing to meet inclusion and exclusion criteria. Subjects were then randomized to either placebo or active based on age and gender. As NAC is a nutritional supplement, the quality control is predictably variable and therefore purity is not as stringent as prescription medications. Therefore, in the present study, the stability of the compound was ascertained and the integrity of the active agent was protected by packaging each NAC doses in individual pockets. The active compound and matching placebo were provided by BioAdvantex Pharma, Inc. (Mississauga, Ontario, Canada). […] Subjects randomized to the active drug were initiated at the dose of 900 mg every day for the first 4 weeks, then 900 mg twice daily for 4 weeks and 900 mg three times daily for 4 weeks. […]
# If a subject could not tolerate a specific dose, s/he would be maintained at the highest tolerated dose. Subjects were evaluated at baseline, week 4, week 8 and week 12. […]
# children with autism [3] = test: 12-week double-blind randomized placebo-controlled study of NAC: Aberrant Behavior Checklist (ABC); assay type: in vivo, human
# Description: The Aberrant Behavior Checklist (ABC) is a standardized scale comprising 58 items for assessing problem behavior in subjects with mental retardation and developmental disabilities (Aman, M. et al., Am J Ment Defic. 89:492-502 (1985)). The checklist is empirically derived from ratings on approximately 1000 subjects, and the items resolve into five subscales: irritability, lethargy/social withdrawal, stereotypic behavior, hyperactivity, and inappropriate speech. High scores indicate more severe behavioral symptoms.
# as §1
# After the screening phase, baseline measures were obtained from subjects continuing to meet inclusion and exclusion criteria. Subjects were then randomized to either placebo or active based on age and gender. As NAC is a nutritional supplement, the quality control is predictably variable and therefore purity is not as stringent as prescription medications. Therefore, in the present study, the stability of the compound was ascertained and the integrity of the active agent was protected by packaging each NAC doses in individual pockets. The active compound and matching placebo were provided by BioAdvantex Pharma, Inc. (Mississauga, Ontario, Canada). […] Subjects randomized to the active drug were initiated at the dose of 900 mg every day for the first 4 weeks, then 900 mg twice daily for 4 weeks and 900 mg three times daily for 4 weeks. (This dose selection was based on previously published studies for other psychiatric conditions (Grant, J. et al., Arch Gen Psychiatry, 66:468-475 (2009); Berk, M. et al., Biol Psychiatry, 64:361-368 (2008); Berk, M. et al., Bio Psychiatry, 64:468-475 (2008)) and the previous experience of our group in studies of children with cystic fibrosis). Alternatively, subjects were initiated at the dose of 900 mg per day, 1,800 mg per day, or 2,700 mg per day of NAC. Alternatively, the subjects were initiated at the dose ranging from 900 mg per day to 2,700 mg per day of NAC.
# If a subject could not tolerate a specific dose, s/he would be maintained at the highest tolerated dose. Subjects were evaluated at baseline, week 4, week 8 and week 12. The Aberrant Behavioral Checklist (ABC) (Aman, M. et al., Am J Ment Defic. 89:492-502 (1985)), the Clinical Global Impressions (CGI) (Guy, W., ECDEU Assessment Manual for Psychopharmacology, Rockville, Md., U.S. Department of Health, Education, and Welfare (1976)), and the Dosage Record and Treatment Emergent Symptom Scale (DOTES) (Guy, W., 1976, ECDEU Assessment Manual for Psychopharmacology, Rockville, Md., U.S. Department of Health, Education, and Welfare) were obtained in each visit. Additional secondary measures were obtained at baseline and at week 12 and included the social responsiveness scale (SRS) (Constantino, J. et al., J. Dev Behav Pediatr., 21:2-11 (2000); Constantino, J. et al., J Autism Dev Disord., 33:427-433 (2003)), and the repetitive behavior scale-revised (RBS-R) (Bodfish, J. et al., The Repetitive Behavior Scale: A test manual (1998)). […]
# [4] = Baseline (before treatment), NAC group n = 15
# [5] = standardized mean difference NAC vs placebo at Week 12
# [6] = all randomized participants, p>0.100
smiles,measurement,setting,value
"CC(=O)N[C@@H](CS)C(=O)O [NAC, N-acetylcysteine]",solubility relative to cystine,"[1]; compared with the stable cysteine disulfide, cystine",much more soluble
same,stability relative to cysteine,[1]; more stable than cysteine,about 10 times
same,"RBS total, Mean (SD)",children with autism [2]; [4],33.1 (16.2)
same,"RBS total, Mean (SD)","children with autism [2]; Week 12, NAC n = 14",22.3 (12.0)
same,"RBS-Total, treatment effect","children with autism [2]; all randomized participants, NAC vs placebo, p=0.015",significant improvement
same,"RBS total, Cohen's d",children with autism [2]; [5],.57
same,"ABC hyperactivity, Mean (SD)",children with autism [3]; [4],23.4 (9.0)
same,"ABC inappropriate speech, Mean (SD)",children with autism [3]; [4],4.9 (3.2)
same,"ABC irritability, Mean (SD)",children with autism [3]; [4],16.9 (7.9)
same,"ABC lethargy, Mean (SD)",children with autism [3]; [4],15.2 (9.5)
same,"ABC stereotypy, Mean (SD)",children with autism [3]; [4],9.1 (5.5)
same,"ABC total, Mean (SD)",children with autism [3]; [4],69.7 (24.7)
same,"ABC hyperactivity, Mean (SD)","children with autism [3]; Week 12, NAC n = 14",12.4 (11.4)
same,"ABC inappropriate speech, Mean (SD)","children with autism [3]; Week 12, NAC n = 14",2.5 (2.6)
same,"ABC irritability, Mean (SD)","children with autism [3]; Week 12, NAC n = 14",7.2 (5.7)
same,"ABC lethargy, Mean (SD)","children with autism [3]; Week 12, NAC n = 14",11.0 (9.4)
same,"ABC stereotypy, Mean (SD)","children with autism [3]; Week 12, NAC n = 14",5.6 (5.7)
same,"ABC total, Mean (SD)","children with autism [3]; Week 12, NAC n = 14, 900 mg daily 4 wk, twice daily 4 wk, three times daily 4 wk, high scores = more severe",38.7 (24.1)
same,"ABC-Irritability, treatment effect (Group x Time)","children with autism [3]; all randomized participants, NAC vs placebo, effects beginning in week 4, continuing through week 8 and 12, p<0.001",significantly improved irritability; also recorded: significant behavioral improvements
same,"ABC-Total, treatment effect (Group x Time)","children with autism [3]; all randomized participants, NAC vs placebo, from week 4 through week 12, p=0.010",significant effects; also recorded: significant behavioral improvements
same,"ABC-Stereotypy, treatment effect","children with autism [3]; all randomized participants, NAC vs placebo, p=0.096",marginally significant improvement
same,"ABC hyperactivity subscale, treatment effect",children with autism [3]; [6],no significant treatment effects
same,"ABC inappropriate speech subscale, treatment effect",children with autism [3]; [6],no significant treatment effects
same,"ABC lethargy subscale, treatment effect",children with autism [3]; [6],no significant treatment effects
same,"ABC inappropriate speech, Cohen's d",children with autism [3]; [5],.35
same,"ABC irritability, Cohen's d",children with autism [3]; [5],.72
same,"ABC lethargy, Cohen's d",children with autism [3]; [5],−.32
same,"ABC stereotypy, Cohen's d",children with autism [3]; [5],.37
same,"ABC total, Cohen's d",children with autism [3]; [5],.63
